The target of the assay is T1, α5β1 integrin (Homo sapiens, UniProt P05556+P08648).
T1 construct: gene ITGA5; soluble human α5β1-integrin (R&D); with integrin α5 (ITGA5, P08648)
Nature of the assay: competitive ELISA-like solid-phase binding assay against immobilized fibronectin. (In an ELISA, binding on a coated surface is turned into a signal by an enzyme label.)

pIC50: −log10 of the molar value.

For `C[C@H](CCC(=O)NCCS(=O)(=O)O)[C@H]1CC[C@H]2[C@@H]3[C@@H](O)C[C@@H]4C[C@H](O)CC[C@]4(C)[C@H]3CC[C@]12C` [TUDC], the pIC50 (in general, the negative decadic logarithm of the IC50, by convention in mol/L) was 2.40. As for `C[C@H](CC(=O)O)[C@H]1CC[C@H]2[C@@H]3C(O)C[C@@H]4C[C@H](O)CC[C@]4(C)[C@H]3CC[C@]12C` (some centres unmarked) [norUDCA], the figure is 2.41.
